Results published in patent US9090576B2, “2-substituted-p-quinone derivatives for treatment of oxidative stress diseases” (Edison Pharmaceuticals, Inc., priority 2008, dated 2015).

Legend:
Type in all cases: cell-based
[1] = system: human dermal fibroblasts from CoQ10 deficient patients; assay: Rescue of BSO-stressed fibroblasts from CoQ10 deficient patients (screen similar to Example A); conditions: Fibroblast, BSO-stressed fibroblasts from CoQ10 deficient patients harboring a CoQ2 mutation, less than about 150 nM, read-out: EC50, protection against CoQ10 deficiency
Experimental: (§1) A culture with FRDA fibroblasts was started from a 1 ml vial with approximately 500,000 cells stored in liquid nitrogen. Cells were propagated in 10 cm cell culture dishes by splitting every third day in a ratio of 1:3 until nine plates were available. Once confluent, fibroblasts were harvested. For 54 micro titer plates (96 well-MTP) a total of 14.3 million cells (passage eight) were re-suspended in 480 ml medium, corresponding to 100 μl medium with 3,000 cells/well. The remaining cells were distributed in 10 cm cell culture plates (500,000 cells/plate) for propagation. The plates were incubated overnight at 37° C. in an atmosphere with 95% humidity and 5% CO2 to allow attachment of the cells to the culture plate.
(§2) MTP medium (243 μl) was added to a well of the microtiter plate. The test compounds were unfrozen, and 7.5 μl of a 5 mM stock solution was dissolved in the well containing 243 μl medium, resulting in a 150 μM master solution. Serial dilutions from the master solution were made. The period between the single dilution steps was kept as short as possible (generally less than 1 second).
(§3) Plates were kept overnight in the cell culture incubator. The next day, 10 μl of a 10 mM BSO solution were added to the wells, resulting in a 1 mM final BSO concentration. Forty-eight hours later, three plates were examined under a phase-contrast microscope to verify that the cells in the 0% control (wells E1-H1) were clearly dead. The medium from all plates was discarded, and the remaining liquid was removed by gently tapping the plate inversed onto a paper towel.
(§4) 100 μl of PBS containing 1.2 μM Calcein AM were then added to each well. The plates were incubated for 50-70 minutes at room temperature. After that time the PBS was discarded, the plate gently tapped on a paper towel and fluorescence (excitation/emission wavelengths of 485 nm and 525 nm, respectively) was read on a Gemini fluorescence reader. Data was imported into Microsoft Excel (EXCEL is a registered trademark of Microsoft Corporation for a spreadsheet program) and used to calculate the EC50 concentration for each compound.
Compounds of the invention were tested using a screen similar to the one described in Example A, but substituting FRDA cells with cells obtained from CoQ10 deficient patients harboring a CoQ2 mutation. The compounds were tested for their ability to rescue human dermal fibroblasts from CoQ10 deficient patients from oxidative stress.

[2] = system: Human dermal fibroblasts from Friedreich's Ataxia patients; assay: Rescue of BSO-stressed FRDA fibroblasts (Calcein AM viability); conditions: BSO-stressed FRDA fibroblasts (GM04078), less than about 150 nM, read-out: EC50, protection against FRDA
How it was run: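 Patient FRDA fibroblasts (GM04078) seeded at 3,000 cells/well, given serially diluted compound from a 150 μM master solution, then stressed next day with 1 mM BSO.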

[3] = system: human dermal fibroblasts from Parkinson's Disease patients; assay: Rescue of BSO-stressed fibroblasts from Parkinson's Disease patients (screen as Example A); conditions: Fibroblast, BSO-stressed Parkinson's Disease fibroblasts (AG20439), less than about 150 nM, read-out: EC50, protection against PD
Experimental: as §1, §2, §3, §4
Compounds of the invention were screened as described in Example A, but substituting FRDA cells with Parkinson's Disease (PD) cells obtained from the Coriell Cell Repositories (Camden, N.J.; repository number AG20439). The compounds were tested for their ability to rescue human dermal fibroblasts from Parkinson's Disease patients from oxidative stress.

[4] = system: human dermal fibroblasts from LHON patients; assay: Rescue of BSO-stressed fibroblasts from LHON patients (screen as Example A); conditions: Fibroblast, BSO-stressed LHON fibroblasts (GM03858), less than about 150 nM, read-out: EC50, protection against LHON
How it was run: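 LHON patient fibroblasts (Coriell GM03858) at 3,000 cells/well were pre-treated overnight with compounds serially diluted from a 150 μM master solution. Surviving cells were stained with 1.2 μM Calcein AM for 50-70 min at RT and read by fluorescence (485/525 nm), giving EC50.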

[5] = system: human dermal fibroblasts from Huntington's patients; assay: Rescue of BSO-stressed fibroblasts from Huntington's patients (screen as Example A); conditions: Fibroblast, BSO-stressed Huntington's fibroblasts (GM 04281), less than about 150 nM, read-out: EC50, protection against Huntington's
How it was run: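 Coriell Huntington's line GM 04281 plated at 3,000 cells/well and attached overnight at 37 °C. Survival was read by Calcein AM (1.2 μM, 50-70 min, RT) fluorescence at 485/525 nm, giving EC50.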

Measured: EC50

COc1ccc(C2(C(=O)NCCC3=C(C)C(=O)C(C)=C(C)C3=O)CC2)cc1 [1-(4-methoxyphenyl)-N-(2-(2,4,5-trimethyl-3,6-dioxocyclohexa-1,4-dienyl)ethyl)cyclopropanecarboxamide]
< 0.15 µM: [1] | [2]

COc1ccccc1CC(=O)NCCC1=C(C)C(=O)C(C)=C(C)C1=O [2-(2-methoxyphenyl)-N-(2-(2,4,5-trimethyl-3,6-dioxocyclohexa-1,4-dienyl)ethyl)acetamide]
< 0.15 µM: [1] | [2]

CC1=C(C)C(=O)C(CCNC(=O)Cc2ccc(Cl)cc2)=C(C)C1=O [2-(4-chlorophenyl)-N-(2-(2,4,5-trimethyl-3,6-dioxocyclohexa-1,4-dienyl)ethyl)acetamide]
not listed: [1]
< 0.15 µM: all other assays above

CC1=C(C)C(=O)C(CCNC(=O)Cc2ccc(F)cc2)=C(C)C1=O [2-(4-fluorophenyl)-N-(2-(2,4,5-trimethyl-3,6-dioxocyclohexa-1,4-dienyl)ethyl)acetamide]
not listed: [1]
< 0.15 µM: all other assays above

CC1=C(C)C(=O)C(CCNC(=O)C(C)c2ccc(F)cc2)=C(C)C1=O (stereo not drawn) [2-(4-fluorophenyl)-N-(2-(2,4,5-trimethyl-3,6-dioxocyclohexa-1,4-dienyl)ethyl)propanamide]
< 0.15 µM: [1] | [2]

CC1=C(C)C(=O)C(CCC(C)C(=O)Nc2ccccn2)=C(C)C1=O (stereo not drawn) [2-methyl-N-(pyridin-2-yl)-4-(2,4,5-trimethyl-3,6-dioxocyclohexa-1,4-dienyl)butanamide]
not listed: [1]
< 0.15 µM: all other assays above

CC1=C(C)C(=O)C(CCNC(=O)N2CCN(Cc3ccccc3)CC2)=C(C)C1=O [4-benzyl-N-(2-(2,4,5-trimethyl-3,6-dioxocyclohexa-1,4-dienyl)ethyl)piperazine-1-carboxamide]
not listed: [1]
< 0.15 µM: all other assays above

CC1=C(C)C(=O)C(CCNS(=O)(=O)c2ccc(F)cc2)=C(C)C1=O [4-fluoro-N-(2-(2,4,5-trimethyl-3,6-dioxocyclohexa-1,4-dienyl)ethyl)benzenesulfonamide]
not listed: [1]
< 0.15 µM: all other assays above

COc1ccc(S(=O)(=O)NCCC2=C(C)C(=O)C(C)=C(C)C2=O)cc1 [4-methoxy-N-(2-(2,4,5-trimethyl-3,6-dioxocyclohexa-1,4-dienyl)ethyl)benzenesulfonamide]
not listed: [1]
< 0.15 µM: all other assays above

CC1=C(C)C(=O)C(CCCC(=O)Nc2cccc(Cl)c2Cl)=C(C)C1=O [N-(2,3-dichlorophenyl)-4-(2,4,5-trimethyl-3,6-dioxocyclohexa-1,4-dienyl)butanamide]
not listed: [1]
< 0.15 µM: all other assays above

CC1=C(C)C(=O)C(CCCC(=O)Nc2cc(Cl)ccc2Cl)=C(C)C1=O [N-(2,5-dichlorophenyl)-4-(2,4,5-trimethyl-3,6-dioxocyclohexa-1,4-dienyl)butanamide]
not listed: [1]
< 0.15 µM: all other assays above

CC1=C(C)C(=O)C(CCCC(=O)Nc2cc(F)ccc2F)=C(C)C1=O [N-(2,5-difluorophenyl)-4-(2,4,5-trimethyl-3,6-dioxocyclohexa-1,4-dienyl)butanamide]
not listed: [1]
< 0.15 µM: all other assays above

CC1=C(C)C(=O)C(CCCC(=O)Nc2c(Cl)cccc2Cl)=C(C)C1=O [N-(2,6-dichlorophenyl)-4-(2,4,5-trimethyl-3,6-dioxocyclohexa-1,4-dienyl)butanamide]
not listed: [1]
< 0.15 µM: all other assays above

CC1=C(C)C(=O)C(CCCC(=O)Nc2c(F)cccc2F)=C(C)C1=O [N-(2,6-difluorophenyl)-4-(2,4,5-trimethyl-3,6-dioxocyclohexa-1,4-dienyl)butanamide]
not listed: [1]
< 0.15 µM: all other assays above

CC1=C(C)C(=O)C(CCCC(=O)Nc2ccc(Cl)c(Cl)c2)=C(C)C1=O [N-(3,4-dichlorophenyl)-4-(2,4,5-trimethyl-3,6-dioxocyclohexa-1,4-dienyl)butanamide]
not listed: [1]
< 0.15 µM: all other assays above

CC1=C(C)C(=O)C(CCCC(=O)Nc2ccc(F)c(F)c2)=C(C)C1=O [N-(3,4-difluorophenyl)-4-(2,4,5-trimethyl-3,6-dioxocyclohexa-1,4-dienyl)butanamide]
not listed: [1]
< 0.15 µM: all other assays above

CC1=C(C)C(=O)C(CCCC(=O)Nc2cc(F)cc(F)c2)=C(C)C1=O [N-(3,5-difluorophenyl)-4-(2,4,5-trimethyl-3,6-dioxocyclohexa-1,4-dienyl)butanamide]
not listed: [1]
< 0.15 µM: all other assays above

COc1ccc(NC(=O)CCCC2=C(C)C(=O)C(C)=C(C)C2=O)cc1 [N-(4-methoxyphenyl)-4-(2,4,5-trimethyl-3,6-dioxocyclohexa-1,4-dienyl)butanamide]
not listed: [1]
< 0.15 µM: all other assays above

CC1=C(C)C(=O)C(CCCC(=O)Nc2ccccn2)=C(C)C1=O [N-(pyridin-2-yl)-4-(2,4,5-trimethyl-3,6-dioxocyclohexa-1,4-dienyl)butanamide]
not listed: [1]
< 0.15 µM: all other assays above

CC1=C(C)C(=O)C(CCCC(=O)Nc2ccncc2)=C(C)C1=O [N-(pyridin-4-yl)-4-(2,4,5-trimethyl-3,6-dioxocyclohexa-1,4-dienyl)butanamide]
not listed: [1]
< 0.15 µM: all other assays above

CC1=C(C)C(=O)C(CCC(C)C(=O)NCc2ccccc2)=C(C)C1=O (stereo not drawn) [N-benzyl-2-methyl-4-(2,4,5-trimethyl-3,6-dioxocyclohexa-1,4-dienyl)butanamide]
not listed: [1]
< 0.15 µM: all other assays above
